Test results published in ChEMBL document CHEMBL5465560, “Selectivity Literature for EUbOPEN Chemogenomic Library” (2024).

Assays:
[1] = target: T1, Tyrosine-protein kinase TXK (Homo sapiens) (UniProt P42681); conditions: at 10 µM
T1 sequence (whole entry): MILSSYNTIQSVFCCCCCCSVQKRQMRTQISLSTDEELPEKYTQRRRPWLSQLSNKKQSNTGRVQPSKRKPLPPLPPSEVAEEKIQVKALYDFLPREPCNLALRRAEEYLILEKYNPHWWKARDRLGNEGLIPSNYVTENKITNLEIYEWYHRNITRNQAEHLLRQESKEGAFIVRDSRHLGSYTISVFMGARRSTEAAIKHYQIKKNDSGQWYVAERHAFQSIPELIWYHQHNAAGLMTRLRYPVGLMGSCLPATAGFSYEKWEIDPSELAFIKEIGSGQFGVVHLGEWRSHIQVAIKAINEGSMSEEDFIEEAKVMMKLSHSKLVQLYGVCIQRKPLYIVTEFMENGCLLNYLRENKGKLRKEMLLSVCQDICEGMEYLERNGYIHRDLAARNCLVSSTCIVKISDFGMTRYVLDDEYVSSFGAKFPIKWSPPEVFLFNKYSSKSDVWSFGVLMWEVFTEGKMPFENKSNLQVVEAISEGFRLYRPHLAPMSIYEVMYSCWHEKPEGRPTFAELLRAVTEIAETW

[2] = target: Rho-associated protein kinase 2 (Homo sapiens, UniProt O75116); conditions: at 10 µM
[3] = target: Cyclin-dependent kinase 9 (Homo sapiens, UniProt P50750); test: Selectivity interaction (ActivX KiNativ screen (ex vivo kinase selectivity in human PBMCs)) EUB0001619a CDK9; format: cell-based; conditions: PBMC, at 1 µM
[4] = target: T2, Serine/threonine-protein kinase LATS1 (Homo sapiens) (UniProt O95835); test: Selectivity interaction (KinomeScan (DiscoverX)) EUB0000655a LATS1; conditions: at 10 µM
T2 sequence (whole entry): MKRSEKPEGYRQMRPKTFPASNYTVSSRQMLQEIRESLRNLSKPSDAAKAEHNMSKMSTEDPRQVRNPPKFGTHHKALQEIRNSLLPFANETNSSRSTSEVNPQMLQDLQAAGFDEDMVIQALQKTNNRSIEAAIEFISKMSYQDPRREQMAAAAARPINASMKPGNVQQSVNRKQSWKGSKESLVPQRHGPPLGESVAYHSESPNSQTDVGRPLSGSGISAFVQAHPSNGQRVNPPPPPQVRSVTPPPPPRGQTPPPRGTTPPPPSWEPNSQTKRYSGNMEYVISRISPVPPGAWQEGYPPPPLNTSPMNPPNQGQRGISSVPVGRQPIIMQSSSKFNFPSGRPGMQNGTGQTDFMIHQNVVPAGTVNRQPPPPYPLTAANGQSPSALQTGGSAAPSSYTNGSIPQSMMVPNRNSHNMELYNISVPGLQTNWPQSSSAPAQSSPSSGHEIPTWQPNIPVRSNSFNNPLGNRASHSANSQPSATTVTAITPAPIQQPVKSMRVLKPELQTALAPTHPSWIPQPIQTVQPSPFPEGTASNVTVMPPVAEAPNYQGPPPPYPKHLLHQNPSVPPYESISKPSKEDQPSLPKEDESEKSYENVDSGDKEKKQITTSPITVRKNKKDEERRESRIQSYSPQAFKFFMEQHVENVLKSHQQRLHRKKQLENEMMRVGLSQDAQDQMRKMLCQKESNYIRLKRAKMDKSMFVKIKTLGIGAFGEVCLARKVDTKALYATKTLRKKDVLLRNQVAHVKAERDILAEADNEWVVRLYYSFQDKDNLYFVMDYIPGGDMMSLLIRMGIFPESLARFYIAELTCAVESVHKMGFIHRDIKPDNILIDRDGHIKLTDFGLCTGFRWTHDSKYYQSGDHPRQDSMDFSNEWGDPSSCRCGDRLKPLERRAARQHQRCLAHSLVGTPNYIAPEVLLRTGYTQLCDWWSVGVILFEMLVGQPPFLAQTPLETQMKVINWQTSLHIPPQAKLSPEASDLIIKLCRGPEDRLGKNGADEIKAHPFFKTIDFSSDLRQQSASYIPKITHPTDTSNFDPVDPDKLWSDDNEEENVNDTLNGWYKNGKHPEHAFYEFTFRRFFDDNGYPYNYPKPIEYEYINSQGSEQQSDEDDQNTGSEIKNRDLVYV

[5] = target: Fibroblast growth factor receptor 4 (Homo sapiens, UniProt P22455); test: Selectivity interaction (SelectScreen profiling (Invitrogen)) EUB0000607a FGFR4; conditions: at 2 µM
[6] = target: Mitogen-activated protein kinase 9 (Homo sapiens, UniProt P45984); test: Selectivity interaction (Kinase panel (Z-LYTE Assay)) EUB0001632a MAPK9; conditions: at 10 µM
Sequence of Mitogen-activated protein kinase 9 (P45984 whole entry, looked up): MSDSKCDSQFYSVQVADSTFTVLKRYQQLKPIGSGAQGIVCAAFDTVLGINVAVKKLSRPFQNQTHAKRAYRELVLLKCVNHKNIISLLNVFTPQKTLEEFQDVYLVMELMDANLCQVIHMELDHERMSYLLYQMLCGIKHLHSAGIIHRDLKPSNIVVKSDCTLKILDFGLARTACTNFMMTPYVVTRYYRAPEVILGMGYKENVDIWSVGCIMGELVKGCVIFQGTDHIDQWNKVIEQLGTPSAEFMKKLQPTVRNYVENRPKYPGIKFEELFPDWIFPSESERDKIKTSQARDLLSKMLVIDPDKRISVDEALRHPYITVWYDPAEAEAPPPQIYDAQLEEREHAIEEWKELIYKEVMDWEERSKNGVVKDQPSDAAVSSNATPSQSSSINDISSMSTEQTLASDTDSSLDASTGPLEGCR

Sequence of Rho-associated protein kinase 2 (O75116 whole entry, looked up): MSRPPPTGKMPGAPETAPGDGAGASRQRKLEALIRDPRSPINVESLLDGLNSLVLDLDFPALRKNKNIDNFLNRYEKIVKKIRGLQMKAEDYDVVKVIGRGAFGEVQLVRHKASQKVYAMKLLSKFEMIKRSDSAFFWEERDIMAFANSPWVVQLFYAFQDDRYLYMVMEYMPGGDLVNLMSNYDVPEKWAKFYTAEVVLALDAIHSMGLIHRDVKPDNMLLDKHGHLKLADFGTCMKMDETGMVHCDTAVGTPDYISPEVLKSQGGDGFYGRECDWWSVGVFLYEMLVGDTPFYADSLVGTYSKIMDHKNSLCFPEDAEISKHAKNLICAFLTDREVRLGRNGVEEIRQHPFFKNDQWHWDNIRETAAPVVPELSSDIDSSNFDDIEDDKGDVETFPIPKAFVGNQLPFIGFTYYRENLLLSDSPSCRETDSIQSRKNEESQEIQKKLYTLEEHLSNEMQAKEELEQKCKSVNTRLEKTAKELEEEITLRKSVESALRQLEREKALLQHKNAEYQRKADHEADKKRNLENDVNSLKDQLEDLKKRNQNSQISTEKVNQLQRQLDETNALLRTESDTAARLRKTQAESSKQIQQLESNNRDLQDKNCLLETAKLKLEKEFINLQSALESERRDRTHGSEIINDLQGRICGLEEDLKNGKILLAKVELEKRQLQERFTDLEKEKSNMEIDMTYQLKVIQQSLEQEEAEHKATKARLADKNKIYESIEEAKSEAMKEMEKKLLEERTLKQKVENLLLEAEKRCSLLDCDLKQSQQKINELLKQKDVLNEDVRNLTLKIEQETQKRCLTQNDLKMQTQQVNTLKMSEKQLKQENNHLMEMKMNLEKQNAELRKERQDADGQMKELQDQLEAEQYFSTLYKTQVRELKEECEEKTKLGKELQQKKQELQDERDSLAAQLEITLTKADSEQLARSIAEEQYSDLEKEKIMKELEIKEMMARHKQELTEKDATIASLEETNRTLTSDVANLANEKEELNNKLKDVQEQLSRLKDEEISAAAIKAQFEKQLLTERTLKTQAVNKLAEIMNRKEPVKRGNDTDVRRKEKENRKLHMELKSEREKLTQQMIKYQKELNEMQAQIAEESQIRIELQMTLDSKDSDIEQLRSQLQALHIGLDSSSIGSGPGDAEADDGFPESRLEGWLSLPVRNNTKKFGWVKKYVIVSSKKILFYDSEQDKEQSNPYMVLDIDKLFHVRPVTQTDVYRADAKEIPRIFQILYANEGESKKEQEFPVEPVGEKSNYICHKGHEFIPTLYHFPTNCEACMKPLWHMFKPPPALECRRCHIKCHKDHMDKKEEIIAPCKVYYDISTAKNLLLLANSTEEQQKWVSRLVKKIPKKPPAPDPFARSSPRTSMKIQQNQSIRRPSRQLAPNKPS
Sequence of Cyclin-dependent kinase 9 (P50750 whole entry): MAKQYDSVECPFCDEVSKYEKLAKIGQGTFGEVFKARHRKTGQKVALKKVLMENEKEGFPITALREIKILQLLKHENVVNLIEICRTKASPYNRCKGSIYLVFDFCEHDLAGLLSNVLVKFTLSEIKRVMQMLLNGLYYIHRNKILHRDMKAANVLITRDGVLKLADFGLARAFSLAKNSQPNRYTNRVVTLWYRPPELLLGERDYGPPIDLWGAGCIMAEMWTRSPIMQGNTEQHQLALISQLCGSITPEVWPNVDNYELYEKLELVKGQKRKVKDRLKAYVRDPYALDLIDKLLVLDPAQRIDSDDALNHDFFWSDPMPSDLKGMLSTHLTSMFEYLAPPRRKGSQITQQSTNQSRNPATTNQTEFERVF
Sequence of Fibroblast growth factor receptor 4 (P22455 22-802 limits assumed): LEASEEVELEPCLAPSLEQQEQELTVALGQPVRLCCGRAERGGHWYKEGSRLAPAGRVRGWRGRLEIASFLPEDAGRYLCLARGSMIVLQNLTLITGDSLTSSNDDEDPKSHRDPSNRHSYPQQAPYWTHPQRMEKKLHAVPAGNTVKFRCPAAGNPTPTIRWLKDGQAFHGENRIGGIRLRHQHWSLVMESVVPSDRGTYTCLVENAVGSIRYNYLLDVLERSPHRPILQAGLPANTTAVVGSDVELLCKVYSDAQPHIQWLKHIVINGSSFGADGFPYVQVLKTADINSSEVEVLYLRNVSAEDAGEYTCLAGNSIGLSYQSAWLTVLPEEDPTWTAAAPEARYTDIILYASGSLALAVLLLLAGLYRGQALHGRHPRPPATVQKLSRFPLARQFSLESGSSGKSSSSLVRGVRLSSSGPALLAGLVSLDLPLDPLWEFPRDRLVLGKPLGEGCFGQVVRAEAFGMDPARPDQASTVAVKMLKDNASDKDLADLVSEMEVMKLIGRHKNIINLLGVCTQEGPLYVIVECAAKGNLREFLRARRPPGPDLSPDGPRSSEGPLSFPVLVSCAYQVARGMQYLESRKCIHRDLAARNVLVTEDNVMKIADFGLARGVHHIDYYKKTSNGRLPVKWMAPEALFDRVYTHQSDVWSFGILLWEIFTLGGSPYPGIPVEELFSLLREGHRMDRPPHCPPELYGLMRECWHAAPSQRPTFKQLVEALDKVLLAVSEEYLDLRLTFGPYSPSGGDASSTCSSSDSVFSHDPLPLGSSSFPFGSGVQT

SMILES: CCN(CC)CCCCNc1ncc2cc(-c3cc(OC)cc(OC)c3)c(NC(=O)NC(C)(C)C)nc2n1
- % of control [1]: 100%

SMILES: Cc1cc([C@@H](C)Nc2ccccc2C(=O)O)c2nc(N3CCOCC3)cc(=O)n2c1 [AZD-6482]
- % of control [2]: 91%

SMILES: N#Cc1cccc(-c2c[nH]c3ncnc(N4CCOCC4)c23)c1
- % of inhibition [3]: 22%

SMILES: CN(C)CCOc1ccc(-c2nc(-c3ccncc3)c(-c3ccc4c(c3)CC/C4=N\O)[nH]2)cc1
- % of control [4]: 87%

SMILES: CNC(=O)Nc1ccc(-c2nc(N3CC4CCC(C3)O4)c3cnn(C4CCC5(CC4)OCCO5)c3n2)cc1
- % of inhibition [5]: 4%

SMILES: Cn1cc(-n2cnc3c(NCc4nc5cc(Cl)c(Cl)cc5[nH]4)nc(N4CCOCC4)nc32)cn1
- % of control [6]: 5.25%
